# Laboratory results published in patent US5698580A, “Antiviral agent containing benzodithiin derivative as active ingredient” (Rational Drug Design Laboratories, priority 1994, dated 1997).
# Experiments:
# [1] = test system: RS virus; test: Suppression of RS virus assayed by the MTT method (Experimental Example 1); assay type: cell-based, RS virus Long strain; settings: for EC50: 120 h, concentration inhibiting HeLa cell destruction by RS virus infection by 50%, 35° C., 5 days, MTT; for S.I. (selectivity index, CC50/EC50): ratio of CC50 to EC50, MTT method
# Protocol: (§1) After the completion of the centrifugation, the media were incubated in a CO2 gas incubator at 35° C. for 5 days. The MTT [3-(4,5-dimethylthiazol-2-yl)-2,5-diphenyltetrazolium bromide] solution was added to the media at 4 hours before the completion of the incubation, and the proportion of viable cells was colorimetrically determined on a microplate reader. The concentration of the compound at which cell destruction by RS virus infection was inhibited by 50% is shown as antiviral activity (EC50). In addition, 50% cytotoxicity value (CC50) of the compound was calculated from the tests run concurrently without inoculation of RS virus. The ratio of CC50 to EC50 was determined as S.I. (selectivity index, CC50 /EC50).
# [2] = in vitro; assay type: cell-based; settings: human, hela cells
# Protocol: as §1, with “Maintenance media (Eagle's MEM media supplemented with 2% bovine serum albumin) containing compounds 1-13 or Ribavirin (control drug) at various concentrations, a HeLa cell suspension prepared in advance by digestion with trypsin, and maintenance media containing RS virus Long strain were plated in 96 well round-bottom microplates, and centrifuged at a low speed (700×g) for 5 minutes at room temperature. After” for “After”
# [3] = test system: RS virus; test: Suppression of RS virus assayed by plaque reduction method (Experimental Example 2); assay type: cell-based, RS virus Long strain; settings: for EC50: 96 h, concentration decreasing number of plaques by 50%, HeLa cells, 35° C., 4 days; for S.I. (selectivity index, CC50/EC50): ratio of CC50 to EC50, plaque reduction method
# Protocol: (§2) The confluently grown HeLa cells in 24 well flat-bottom multitrays were inoculated with RS virus Long strain prepared in a maintenance medium (Eagle's MEM medium supplemented with 2% bovine serum albumin), and the cells were incubated in a CO2 gas incubator at 35° C. for one hour. Culture solution was discarded and the cells were washed with a maintenance medium. Then, maintenance media (supplemented with 0.6% methylcellulose) containing Compound 1 or Ribavirin (control drug) at various concentrations were added, and the media were incubated in a CO2 gas incubator at 35° C. for 4 days. After the completion of the incubation, the cells were fixed with a 5% aqueous formalin solution for 6 hours and washed with tap water. Then, the cells were stained with a 0.025% aqueous crystal violet solution. The infected cell plaques which were not stained with crystal violet were microscopically counted. The plaques formed using the compound at various concentrations and those of control group without the compound were counted, and the concentration of the compound at which the number of plaques was decreased by 50% is shown as an antiviral activity (EC50). In addition, 50% cytotoxicity (CC50) of the compound was calculated by the MTT method. The ratio of CC50 to EC50 was determined as S.I. (selectivity index, CC50 /EC50).
# [4] = in vitro; assay type: cell-based; settings: human, hela cells; remark: listed apart in the source
# Protocol: as §2
# [5] = background art; cited from earlier work
# [6] = test system: RS virus; settings: background art; cited from earlier work
SMILES,EC50 [1],"S.I. (selectivity index, CC50/EC50) [1]",CC50 at 120 h [2],EC50 [3],"S.I. (selectivity index, CC50/EC50) [3]",CC50 [4],"teratogenicity, carcinogenicity and mutagenicity [5]",toxicity [5],effect against RS virus [6]
"c1ccc2c(c1)CSSC2 [Compound 1, 1,4-dihydro-2,3-benzodithiin]",0.3 µg/mL,143.3,43 µg/mL,1.7 µg/mL,26.29,44.7 µg/mL,,,
"O=[N+]([O-])c1ccc2c(c1)CSSC2 [Compound 2, 1,4-dihydro-6-nitro-2,3-benzodithiin]",1.9 µg/mL,4.7,8.9 µg/mL,,,,,,
"Nc1ccc2c(c1)CSSC2 [Compound 3, 6-amino-1,4-dihydro-2,3-benzodithiin]",3 µg/mL,1.7,5.1 µg/mL,,,,,,
"COC(=O)c1ccc2c(c1)CSSC2 [Compound 4, methyl 1,4-dihydro-2,3-benzodithiin-6-carboxylate]",1.8 µg/mL,5.4,9.7 µg/mL,,,,,,
"O=C(O)c1ccc2c(c1)CSSC2 [Compound 5, 1,4-dihydro-2,3-benzodithiin-6-carboxylic acid]",11.8 µg/mL,4.0,47.2 µg/mL,,,,,,
"Cc1ccc2c(c1)CSSC2 [Compound 6, 1,4-dihydro-6-methyl-2,3-benzodithiin]",0.2 µg/mL,224,44.7 µg/mL,,,,,,
"c1ccc(COc2ccc3c(c2)CSSC3)cc1 [Compound 7, 6-benzyloxy-1,4-dihydro-2,3-benzodithiin]",> 9.6 µg/mL,,9.6 µg/mL,,,,,,
"COc1ccc2c(c1)CSSC2 [Compound 8, 1,4-dihydro-6-methoxy-2,3-benzodithiin]",1.6 µg/mL,8.0,12.8 µg/mL,,,,,,
"Fc1ccc2c(c1)CSSC2 [Compound 9, 1,4-dihydro-6-fluoro-2,3-benzodithiin]",0.8 µg/mL,72.1,57.7 µg/mL,,,,,,
"Fc1cccc2c1CSSC2 [Compound 10, 1,4-dihydro-5-fluoro-2,3-benzodithiin]",1.1 µg/mL,> 90.9,> 100 µg/mL,,,,,,
"Clc1ccc2c(c1)CSSC2 [Compound 11, 6-chloro-1,4-dihydro-2,3-benzodithiin]",1.7 µg/mL,9.9,16.8 µg/mL,,,,,,
"CN(C)c1ccc2c(c1)CSSC2 [Compound 12, 1,4-dihydro-6-N,N-dimethylamino-2,3-benzodithiin]",2.3 µg/mL,14.5,33.3 µg/mL,,,,,,
"CC(C)(C)c1ccc2c(c1)CSSC2 [Compound 13, 6-tert-butyl-1,4-dihydro-2,3-benzodithiin]",6.5 µg/mL,2.3,15.2 µg/mL,,,,,,
"NC(=O)c1ncn([C@@H]2O[C@H](CO)[C@@H](O)[C@H]2O)n1 [Ribavirin, reference compound]",7.6 µg/mL,13.2,> 100 µg/mL,3.7 µg/mL,27.03,> 100 µg/mL,"teratogenic, carcinogenic and mutagenic",high toxicity,effective against RS virus
